For assay [1], the target named is Transcriptional enhancer factor TEF-1 (Homo sapiens, UniProt P28347).
Description: Binding affinity to human recombinant N-terminal His-tagged TEAD1 (residues 209 to 424) expressed in Escherichia coli BL21 (DE3) assessed as dissociation constant
The target in assay [2] is Replicase polyprotein 1ab (Severe acute respiratory syndrome coronavirus 2, UniProt P0DTD1).
Description: Binding affinity to SARS-CoV-2 Main protease assessed as dissociation constant by SPR analysis
For assay [3], the target named is Interleukin-1 beta (Homo sapiens, UniProt P01584). The experiment in a line: Binding affinity to Interleukin-1beta (unknown origin) assessed as dissociation constant.
In assay [4] the target is T1, Pantothenate synthetase (Mycobacterium tuberculosis, UniProt P9WIL5).
T1 sequence (P9WIL5 whole entry): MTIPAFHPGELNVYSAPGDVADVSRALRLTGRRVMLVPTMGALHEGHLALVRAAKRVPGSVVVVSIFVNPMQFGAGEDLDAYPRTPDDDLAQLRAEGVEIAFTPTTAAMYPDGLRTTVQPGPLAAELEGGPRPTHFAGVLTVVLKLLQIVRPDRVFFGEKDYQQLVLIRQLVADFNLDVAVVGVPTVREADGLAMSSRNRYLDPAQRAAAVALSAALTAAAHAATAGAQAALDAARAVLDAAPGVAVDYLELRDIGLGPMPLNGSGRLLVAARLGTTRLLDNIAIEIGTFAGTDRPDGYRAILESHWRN
The experiment in a line: Inhibition of Mycobacterium tuberculosis H37Ra pantothenate synthetase.

The target in assay [5] is Transcriptional enhancer factor TEF-4 (Homo sapiens, UniProt Q15562).
Chain of Transcriptional enhancer factor TEF-4 (Q15562 whole entry): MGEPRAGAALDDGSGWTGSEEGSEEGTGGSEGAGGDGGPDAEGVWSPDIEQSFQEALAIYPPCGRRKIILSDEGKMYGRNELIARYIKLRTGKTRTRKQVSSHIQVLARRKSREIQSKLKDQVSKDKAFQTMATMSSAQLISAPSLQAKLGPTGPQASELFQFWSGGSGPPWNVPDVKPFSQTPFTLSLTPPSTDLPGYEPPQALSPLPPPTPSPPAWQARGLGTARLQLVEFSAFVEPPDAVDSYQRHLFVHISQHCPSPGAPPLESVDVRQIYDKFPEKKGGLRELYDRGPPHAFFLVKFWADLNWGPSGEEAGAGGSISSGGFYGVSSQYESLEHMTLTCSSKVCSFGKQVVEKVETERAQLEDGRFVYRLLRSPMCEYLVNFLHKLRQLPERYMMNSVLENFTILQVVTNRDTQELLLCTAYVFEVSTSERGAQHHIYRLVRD
Description: Binding affinity to human recombinant N-terminal His-tagged TEAD2 (residues 209 to 424) expressed in Escherichia coli BL21 (DE3) assessed as dissociation constant

Chain of Interleukin-1 beta (P01584 117-269 limits assumed): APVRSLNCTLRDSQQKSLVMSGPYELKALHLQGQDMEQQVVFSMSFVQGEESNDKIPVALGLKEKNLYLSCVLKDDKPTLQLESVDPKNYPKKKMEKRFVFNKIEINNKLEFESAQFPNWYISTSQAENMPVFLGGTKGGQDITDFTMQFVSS
Chain of Transcriptional enhancer factor TEF-1 (P28347 whole entry): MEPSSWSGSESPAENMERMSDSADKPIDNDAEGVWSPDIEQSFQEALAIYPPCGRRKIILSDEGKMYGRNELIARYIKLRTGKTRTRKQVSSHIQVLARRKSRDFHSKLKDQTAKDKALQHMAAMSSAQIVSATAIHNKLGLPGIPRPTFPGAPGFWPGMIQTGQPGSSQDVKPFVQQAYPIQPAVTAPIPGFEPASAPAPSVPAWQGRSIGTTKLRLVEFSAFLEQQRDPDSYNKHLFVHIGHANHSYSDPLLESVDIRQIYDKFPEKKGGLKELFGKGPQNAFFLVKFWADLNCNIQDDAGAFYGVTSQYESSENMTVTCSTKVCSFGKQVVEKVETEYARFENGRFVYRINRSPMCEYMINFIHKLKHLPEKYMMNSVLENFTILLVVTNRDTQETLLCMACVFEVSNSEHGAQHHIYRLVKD

As a reminder, the Kd is a measure of binding affinity in units of concentration. For the compound `C=C(F)C(=O)N1C[C@@H](n2cc(-c3cccnc3)nn2)[C@H](OCc2ccc(C(F)(F)F)cc2)C1`, in assay [1], the Kd is 170 nM.

`O=C1N[C@@H](Cc2ccccc2)C(=O)N1c1cncc(F)c1`: in assay [2], the affinity, expressed as Kd, was 23000 nM.

On to `O=C(O)c1cc(NCc2ccccc2OCCOCCOCCOc2ccccc2CNc2cc(C(=O)O)cc(-c3ccnc4ccccc34)c2)cc(-c2ccnc3ccccc23)c1`, for which the Kd in assay [3] came out at 40 nM.

One may read the IC50 as the concentration that gives 50% inhibition. With `N#Cc1c(N)ncnc1-c1cnn(Cc2ccc(F)c(F)c2)c1`, in assay [4], the midpoint of inhibition, the IC50, lay at 150 nM.

In turn, `N#Cc1cncnc1N` displayed an IC50 in assay [4] of 340 nM.

Take `O=C(O)c1ccccc1Nc1cccc(C(F)(F)F)c1` [FLUFENAMIC ACID]: the Kd in assay [5] was found to be 73000 nM.

For the origin of these results see ChEMBL document CHEMBL5528034, “Fragment-to-Lead Medicinal Chemistry Publications in 2022” (J Med Chem, 2024).
